{"source": "paper PMC11062899", "about": "“De novo development of small cyclic peptides that are orally bioavailable” (Nature Chemical Biology, 2023)", "key": {"[1]": {"biological_target": "human α-thrombin (Homo sapiens, UniProt P00734)", "assay": "Protease inhibition, Ki for human α-thrombin (fluorogenic substrate Z-Gly-Gly-Arg-AMC)", "assay_type": "biochemical", "settings": "for slope normalized to DMSO, human alpha thrombin inhibition: replicates R1-R3", "procedure,_shortened": "(§1)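 Ki values come from Cheng–Prusoff correction of IC50, itself fitted by four-parameter logistic regression of activity versus a no-peptide control. Assays used 2 nM human or 3 nM rat thrombin, 50 μM Z-Gly-Gly-Arg-AMC, 30 min kinetic fluorescence at 25 °C.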"}, "[2]": {"biological_target": "T1, porcine pepsin (Sus scrofa, UniProt P00791)", "T1 construct": "0.32 g of porcine pepsin (Sigma-Aldrich, P7125) was dissolved under gentle agitation; purchased Sigma-Aldrich P7125", "T1 sequence (P00791 60-385)": "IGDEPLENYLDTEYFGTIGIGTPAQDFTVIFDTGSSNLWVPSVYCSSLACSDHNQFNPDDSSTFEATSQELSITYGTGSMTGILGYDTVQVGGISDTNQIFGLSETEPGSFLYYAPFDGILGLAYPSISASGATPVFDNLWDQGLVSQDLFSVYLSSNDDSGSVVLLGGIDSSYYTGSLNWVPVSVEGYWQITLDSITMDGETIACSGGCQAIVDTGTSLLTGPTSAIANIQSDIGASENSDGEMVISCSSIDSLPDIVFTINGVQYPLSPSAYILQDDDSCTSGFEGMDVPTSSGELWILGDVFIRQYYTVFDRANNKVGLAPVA", "assay": "Peptide stability in simulated gastric fluid (SGF)", "assay_type": "in vitro ADME", "settings": "pig, simulated gi fluid; 8 h, 37 °C, pH 1.2; read-out: Proteolytic stability: SGF (8 h) % remaining", "procedure,_shortened": "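Peptide from a 1 mM DMSO stock was added to fluid pre-warmed at 37 °C. SGF was pH 1.2 NaCl with porcine pepsin (0.32 g per 100 ml), and SIF was pH 6.8 potassium phosphate with porcine pancreatin (1 g per 100 ml). Supernatant peptide was quantified by LC–MS, with residual expressed as T1/T0.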"}, "[3]": {"biological_target": "T2, rat α-thrombin (Rattus norvegicus, UniProt P18292)", "T2 construct": "rat α-thrombin (Molecular Innovations) were used at final concentrations of 2 nM and 3 nM; purchased Molecular Innovations", "assay": "Protease inhibition, Ki for rat α-thrombin (fluorogenic substrate Z-Gly-Gly-Arg-AMC)", "assay_type": "biochemical", "settings": "for slope normalized to DMSO, rat alpha thrombin inhibition: replicates R1-R3", "procedure,_shortened": "as §1"}, "[4]": {"assay": "Metabolic stability in rat liver microsomes (RLMs)", "settings": "for TIC value of compound, metabolic stability RLM: replicates R1-R3; for microsomal CLint / half-life: rat, microsomes", "protocol": "Metabolic stability was measured by incubating the peptides (10 μM) with RLMs. Peptides to test were dissolved in DMSO (4 mM), and 1 μl of the resulting solution was added to 365 μl of 0.1 M sodium phosphate buffer (pH 7.4). The solution was pre-warmed at 37 °C for 5 min before starting the reaction by addition of 24 μl of NADPH cofactor solution (22 mM) and 11 μl of RLMs (20 mg ml^−1 protein concentration; Thermo Fisher Scientific, RTMCPL). […] Samples were vortexed, sonicated for 5 min and centrifuged at 16,000g for 10 min. Supernatant was analyzed by LC–MS to quantify the disappearance of the compound and formation of degradation products."}, "[5]": {"assay": "Passive artificial membrane permeability (PAMPA)"}}, "note": "Several values for one entry are separate records, joined by “and”; a condition that tells them apart may be missing. Equal entries are not always repeated. Where two headings read alike, the source gives them in different places.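 For Permeability% Average in this document: top well sample relative to theoretical equilibrium sample by TIC.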", "data": [{"smiles": "O=C1C[C@H]2CCCN2C(=O)[C@H](Cc2ccccc2)NC(=O)[C@@H](NC(=O)c2ccc(Cl)cc2)CCC=CCCCCN1", "note": "(mixture of isomers) [peptide 46]", "values": [{"measurement": "Ki", "setting": "[1]; average of R1-R3, read-out: Ki Average, human alpha thrombin inhibition", "result": 65.1, "unit": "nM"}, {"measurement": "IC50", "setting": "[1]; individual replicates R1-R3, read-out: IC50, human alpha thrombin inhibition", "result": "94.1 nM and 79.8 nM and 79.7 nM"}, {"measurement": "Ki", "setting": "[1]; individual replicates R1-R3, read-out: Ki, human alpha thrombin inhibition", "result": "72.5 nM (2×) and 61.5 nM (2×) and 61.4 nM (2×)"}, {"measurement": "slope normalized to DMSO, human alpha thrombin inhibition", "setting": "[1]; peptide 1.00E+02 uM", "result": "10.4 and 9.8 and 9.9"}, {"measurement": "slope normalized to DMSO, human alpha thrombin inhibition", "setting": "[1]; peptide 1.19E-05 uM", "result": "103.8 and 104.1 and 105.5"}, {"measurement": "slope normalized to DMSO, human alpha thrombin inhibition", "setting": "[1]; peptide 1.22E-02 uM", "result": "87.6 and 86.9 (2×)"}, {"measurement": "slope normalized to DMSO, human alpha thrombin inhibition", "setting": "[1]; peptide 1.25E+01 uM", "result": "5.3 and 12.2 and 12.4"}, {"measurement": "slope normalized to DMSO, human alpha thrombin inhibition", "setting": "[1]; peptide 1.53E-03 uM", "result": "101.5 and 101.1 and 102.6"}, {"measurement": "slope normalized to DMSO, human alpha thrombin inhibition", "setting": "[1]; peptide 1.56E+00 uM", "result": "20.2 and 17.9 and 18.1"}, {"measurement": "slope normalized to DMSO, human alpha thrombin inhibition", "setting": "[1]; peptide 1.91E-04 uM", "result": "103.2 and 104.0 and 103.7"}, {"measurement": "slope normalized to DMSO, human alpha thrombin inhibition", "setting": "[1]; peptide 1.95E-01 uM", "result": "45.4 and 43.2 and 43.8"}, {"measurement": "slope normalized to DMSO, human alpha thrombin inhibition", "setting": "[1]; peptide 2.38E-05 uM", "result": "104.8 and 104.2 and 105.6"}, {"measurement": "slope normalized to DMSO, human alpha thrombin inhibition", "setting": "[1]; peptide 2.44E-02 uM", "result": "80.1 and 79.6 and 79.3"}, {"measurement": "slope normalized to DMSO, human alpha thrombin inhibition", "setting": "[1]; peptide 2.50E+01 uM", "result": "11.9 and 11.0 and 10.5"}, {"measurement": "slope normalized to DMSO, human alpha thrombin inhibition", "setting": "[1]; peptide 3.05E-03 uM", "result": "97.6 and 98.1 and 98.6"}, {"measurement": "slope normalized to DMSO, human alpha thrombin inhibition", "setting": "[1]; peptide 3.12E+00 uM", "result": "16.0 and 13.3 and 14.6"}, {"measurement": "slope normalized to DMSO, human alpha thrombin inhibition", "setting": "[1]; peptide 3.81E-04 uM", "result": "102.7 and 102.9 and 102.6"}, {"measurement": "slope normalized to DMSO, human alpha thrombin inhibition", "setting": "[1]; peptide 3.91E-01 uM", "result": "32.0 and 29.5 and 28.9"}, {"measurement": "slope normalized to DMSO, human alpha thrombin inhibition", "setting": "[1]; peptide 4.77E-05 uM", "result": "102.3 and 105.2 and 103.4"}, {"measurement": "slope normalized to DMSO, human alpha thrombin inhibition", "setting": "[1]; peptide 4.88E-02 uM", "result": "66.2 and 64.4 and 64.1"}, {"measurement": "slope normalized to DMSO, human alpha thrombin inhibition", "setting": "[1]; peptide 5.00E+01 uM", "result": "11.3 and 10.4 and 8.0"}, {"measurement": "slope normalized to DMSO, human alpha thrombin inhibition", "setting": "[1]; peptide 6.10E-03 uM", "result": "94.3 and 94.6 and 94.4"}, {"measurement": "slope normalized to DMSO, human alpha thrombin inhibition", "setting": "[1]; peptide 6.25E+00 uM", "result": "14.8 and 13.5 (2×)"}, {"measurement": "slope normalized to DMSO, human alpha thrombin inhibition", "setting": "[1]; peptide 7.63E-04 uM", "result": "99.9 and 102.3 and 103.3"}, {"measurement": "slope normalized to DMSO, human alpha thrombin inhibition", "setting": "[1]; peptide 7.81E-01 uM", "result": "26.0 and 24.0 (2×)"}, {"measurement": "slope normalized to DMSO, human alpha thrombin inhibition", "setting": "[1]; peptide 9.54E-05 uM", "result": "102.8 and 104.6 and 103.3"}, {"measurement": "slope normalized to DMSO, human alpha thrombin inhibition", "setting": "[1]; peptide 9.77E-02 uM", "result": "53.1 and 52.5"}, {"measurement": "remaining at 8 h", "setting": "[2]", "result": "96 ± 12", "unit": "%"}, {"measurement": "IC50", "setting": "[3]; individual replicates R1-R3, read-out: IC50, rat alpha thrombin inhibition", "result": "18.6 nM and 18.8 nM and 18.2 nM"}, {"measurement": "Ki", "setting": "[3]; individual replicates R1-R3, read-out: Ki, rat alpha thrombin inhibition", "result": "10.3 nM and 10.4 nM and 10.1 nM"}, {"measurement": "slope normalized to DMSO, rat alpha thrombin inhibition", "setting": "[3]; peptide 1.00E+02 uM", "result": "8.3 and 7.3 and 7.2"}, {"measurement": "slope normalized to DMSO, rat alpha thrombin inhibition", "setting": "[3]; peptide 1.19E-05 uM", "result": "99.4 and 100.3 and 100.6"}, {"measurement": "slope normalized to DMSO, rat alpha thrombin inhibition", "setting": "[3]; peptide 1.22E-02 uM", "result": "60.3 and 60.4 and 59.6"}, {"measurement": "slope normalized to DMSO, rat alpha thrombin inhibition", "setting": "[3]; peptide 1.25E+01 uM", "result": "5.7 and 8.0 and 8.3"}, {"measurement": "slope normalized to DMSO, rat alpha thrombin inhibition", "setting": "[3]; peptide 1.53E-03 uM", "result": "88.8 and 87.9 and 87.4"}, {"measurement": "slope normalized to DMSO, rat alpha thrombin inhibition", "setting": "[3]; peptide 1.56E+00 uM", "result": "10.8 and 10.2 and 9.8"}, {"measurement": "slope normalized to DMSO, rat alpha thrombin inhibition", "setting": "[3]; peptide 1.91E-04 uM", "result": "94.6 and 95.0 and 96.1"}, {"measurement": "slope normalized to DMSO, rat alpha thrombin inhibition", "setting": "[3]; peptide 1.95E-01 uM", "result": "21.1 and 20.0 and 19.8"}, {"measurement": "slope normalized to DMSO, rat alpha thrombin inhibition", "setting": "[3]; peptide 2.38E-05 uM", "result": "96.3 and 97.7 and 98.1"}, {"measurement": "slope normalized to DMSO, rat alpha thrombin inhibition", "setting": "[3]; peptide 2.44E-02 uM", "result": "48.7 and 49.3 and 48.8"}, {"measurement": "slope normalized to DMSO, rat alpha thrombin inhibition", "setting": "[3]; peptide 2.50E+01 uM", "result": "12.0 and 7.7 and 6.9"}, {"measurement": "slope normalized to DMSO, rat alpha thrombin inhibition", "setting": "[3]; peptide 3.05E-03 uM", "result": "80.9 and 81.1 and 81.9"}, {"measurement": "slope normalized to DMSO, rat alpha thrombin inhibition", "setting": "[3]; peptide 3.12E+00 uM", "result": "9.6 and 9.4 and 8.9"}, {"measurement": "slope normalized to DMSO, rat alpha thrombin inhibition", "setting": "[3]; peptide 3.81E-04 uM", "result": "92.9 and 94.7 and 94.0"}, {"measurement": "slope normalized to DMSO, rat alpha thrombin inhibition", "setting": "[3]; peptide 3.91E-01 uM", "result": "15.0 and 14.0 and 13.6"}, {"measurement": "slope normalized to DMSO, rat alpha thrombin inhibition", "setting": "[3]; peptide 4.77E-05 uM", "result": "95.4 and 96.4 and 96.6"}, {"measurement": "slope normalized to DMSO, rat alpha thrombin inhibition", "setting": "[3]; peptide 4.88E-02 uM", "result": "33.7 and 33.6 and 33.1"}, {"measurement": "slope normalized to DMSO, rat alpha thrombin inhibition", "setting": "[3]; peptide 5.00E+01 uM", "result": "7.6 and 7.2 and 7.4"}, {"measurement": "slope normalized to DMSO, rat alpha thrombin inhibition", "setting": "[3]; peptide 6.10E-03 uM", "result": "72.8 and 73.4 and 73.0"}, {"measurement": "slope normalized to DMSO, rat alpha thrombin inhibition", "setting": "[3]; peptide 6.25E+00 uM", "result": "10.1 and 8.5 and 8.3"}, {"measurement": "slope normalized to DMSO, rat alpha thrombin inhibition", "setting": "[3]; peptide 7.63E-04 uM", "result": "91.2 and 92.2 and 91.3"}, {"measurement": "slope normalized to DMSO, rat alpha thrombin inhibition", "setting": "[3]; peptide 7.81E-01 uM", "result": "13.0 and 11.7 and 11.5"}, {"measurement": "slope normalized to DMSO, rat alpha thrombin inhibition", "setting": "[3]; peptide 9.54E-05 uM", "result": "95.8 and 95.1 and 95.6"}, {"measurement": "slope normalized to DMSO, rat alpha thrombin inhibition", "setting": "[3]; peptide 9.77E-02 uM", "result": "26.6 and 25.4 and 25.1"}, {"measurement": "TIC value of compound, metabolic stability RLM", "setting": "[4]; 0 min", "result": "14110188 (2×) and 12352514"}, {"measurement": "TIC value of compound, metabolic stability RLM", "setting": "[4]; 5 min", "result": "13677902 and 11194388 and 11188088"}, {"measurement": "TIC value of compound, metabolic stability RLM", "setting": "[4]; 15 min", "result": "10674204 and 7516980 and 9028625"}, {"measurement": "TIC value of compound, metabolic stability RLM", "setting": "[4]; 30 min", "result": "7710068 and 5736371 and 6256299"}, {"measurement": "TIC value of compound, metabolic stability RLM", "setting": "[4]; 60 min", "result": "3465219 and 2801334 and 3774480"}, {"measurement": "CL, RLM", "setting": "[4]; individual replicates R1-R3", "result": "41.9492 ul/min/mg protein and 42.0127 ul/min/mg protein"}, {"measurement": "Half Life, RLM", "setting": "[4]; individual replicates R1-R3", "result": "33.04 min and 32.99 min"}, {"measurement": "microsomal CLint", "setting": "[4]; CL, RLM, individual replicates R1-R3", "result": 41.5, "unit": "µL/min/mg"}, {"measurement": "half-life", "setting": "[4]; Half Life, RLM, individual replicates R1-R3", "result": 33.4, "unit": "min"}, {"measurement": "microsomal CLint", "setting": "[4]; Metabolic stability: RLM CL (ul/min/mg), RLMs, mean and SD, three measurements", "result": "43 ± 1", "unit": "µL/min/mg"}, {"measurement": "half-life", "setting": "[4]; pH 7.4, Metabolic stability: Half life T1/2 (min), RLMs, mean and SD, three measurements", "result": "33 ± 1", "unit": "min"}, {"measurement": "PAMPA permeability: % permeability", "setting": "[5]; 50 μM, 12–18 h, acceptor concentration relative to equilibrium", "result": "55 ± 8", "unit": "%"}, {"measurement": "Permeability% (single replicates R1–R3)", "setting": "[5]; 50 μM, 12 h (Fig. 6d)", "result": "49.41% and 50.43% and 63.83%"}, {"measurement": "Permeability% Average", "setting": "[5]; 50 μM, 12 h (Fig. 6d)", "result": 54.6, "unit": "%"}, {"measurement": "Papp at 50 μM", "setting": "[5]; PAMPA, pH 7.4", "result": 7.76, "unit": "×10⁻⁶ cm/s"}]}]}
